Data on four compounds can be found in US11571412B2, “Thromboxane receptor antagonists in AERD/asthma” (Cumberland Pharmaceuticals Inc., priority 2015, dated 2023).

One data set relates to Df-treated ptges−/− mice. The settings on record: cited from earlier work; for Reaction to aspirin (peak change in RL in response to Lys-ASA challenge): two doses of antagonist prior to challenge with Lys-ASA.
The next data set has as its target CYP2C9 (Homo sapiens, UniProt P11712). The settings on record: cited from earlier work.
In a further data set the target is CYP3A4 (Homo sapiens, UniProt P08684). The settings on record: cited from earlier work.
Sequence of CYP3A4 (P08684 whole entry): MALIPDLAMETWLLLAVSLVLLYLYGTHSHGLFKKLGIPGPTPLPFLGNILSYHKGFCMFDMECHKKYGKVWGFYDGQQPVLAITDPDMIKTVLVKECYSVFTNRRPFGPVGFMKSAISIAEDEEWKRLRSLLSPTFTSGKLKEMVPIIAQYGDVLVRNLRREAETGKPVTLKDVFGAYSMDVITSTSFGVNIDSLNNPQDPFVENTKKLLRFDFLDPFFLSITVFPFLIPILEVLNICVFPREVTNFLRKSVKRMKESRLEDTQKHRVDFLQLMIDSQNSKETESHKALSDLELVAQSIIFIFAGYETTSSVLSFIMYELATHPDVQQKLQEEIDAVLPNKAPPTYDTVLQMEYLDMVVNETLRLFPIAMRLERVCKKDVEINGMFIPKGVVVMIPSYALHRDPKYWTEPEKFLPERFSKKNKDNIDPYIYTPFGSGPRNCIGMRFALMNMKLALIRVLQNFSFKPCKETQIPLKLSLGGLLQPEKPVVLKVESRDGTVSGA
The test system of data set [1] is patients with a history of aspirin exacerbated respiratory disease (AERD). Nature of the data set: Multicenter, double-blind, randomized, placebo-controlled trial of oral ifetroban with aspirin challenge/desensitization (AERD Phase 2a). The class given is in vivo, human. The settings on record: for Incidence of an AIR by Aspirin Dose: AIR population n = 10; for NIFR ≥25% decrease / NIFR ≥25% increase / TNSS ≥25% decrease / TNSS ≥25% increase: ifetroban 200 mg/day oral; for Rescue Medications Mean (SD): to resolve an AIR. From the text: Example IV is a multicenter, double-blind, randomized, placebo-controlled trial to determine the safety of oral ifetroban in patients with a history of aspirin exacerbated respiratory disease (AERD).
The eligible subjects were randomized (3:1 active to placebo) in this 7-day study which consisted of a screening, treatment and follow-up period. Any subject receiving at least a partial dose of IMP were not replaced and included in the study analysis. Of 19 subjects enrolled and randomized to study treatment, 14 (74%) were randomized to the ifetroban group and 5 (26%) to the placebo group. Of those 14 randomized to ifetroban, 12 (86%) subjects were treated and 100% of those treated completed treatment. Of 5 subjects randomized to placebo, 4 (80%) started treatment and 100% completed treatment. All treated subjects were analyzed for safety and efficacy variables.
All individuals with AERD will experience a clinical reaction to aspirin, most often at a dose of 81 mg or below. By utilizing a modified Scripps Institute protocol (Hope, Woessner, Simon, & Stevenson, 2009), limiting the study to individuals with stable asthma and no history of life-threatening reaction to COX inhibitors and administering the cysteinyl leukotriene receptor 1 (Cys-LT1) antagonist montelukast to all individuals undergoing the challenge/desensitization, the procedure could safely be done in an ambulatory/outpatient clinic setting. […] Thus, montelukast substantially increases the safety of aspirin challenge/desensitization and it is the standard of care to use montelukast as a pre-treatment for subjects with AERD undergoing a planned aspirin challenge/desensitization.
The primary objective of this study was to determine the safety of oral ifetroban compared to placebo as measured by a ≥20% decrease in Forced Expiratory Volume in 1 second (FEV1) compared to baseline following a dose of Investigational Medicinal Product (IMP) (Study Day 1) or following a dose of IMP but prior to initiation of the aspirin challenge. Secondary objectives were: (i) to determine the safety of oral ifetroban compared to placebo as measured by peak Nasal Inspiratory Flow Rate (NIFR) compared to baseline following a dose of IMP (Study Day 1) or following a dose of IMP but prior to initiation of the aspirin challenge; (ii) to determine the safety of oral ifetroban compared to placebo as measured by the change in Total Nasal Symptom Score (TNSS) compared to baseline following a dose of IMP (Study Day 1) or following a dose of IMP but prior to initiation of the aspirin challenge; (iii) to determine the safety and tolerability of oral ifetroban compared to placebo as measured by treatment-emergent adverse events; (iv) to determine the efficacy of oral ifetroban compared to placebo in decreasing the respiratory reaction to oral aspirin as measured by the change in FEV1 compared to baseline during the aspirin challenge; (v) to determine the efficacy of oral ifetroban compared to placebo in decreasing the respiratory reaction to oral aspirin as measured by the change in NIFR compared to baseline during the aspirin challenge; (vi) to determine the efficacy of oral ifetroban compared to placebo in decreasing the respiratory reaction to oral aspirin as measured by the change in TNSS compared to baseline during the aspirin challenge; (vii) to determine the efficacy of oral ifetroban compared to placebo in decreasing the respiratory reaction to oral aspirin as measured by the amount of rescue medication during the aspirin challenge; (viii) to determine the efficacy of oral ifetroban compared to placebo in decreasing respiratory sensitivity to COX-1 inhibition as measured by the aspirin desensitization dose level; and (ix) to determine the efficacy of oral ifetroban compared to placebo as measured by the number of asthmatic reactions during the Treatment Period. […]

Another data set deals with guinea pig trachea. The settings on record: in vitro; cited from earlier work.
Data set [2] relates to TP receptor-induced bronchospasm. The settings on record: rats; cited from earlier work.
For data set [3] the test system is unchanged. The settings on record: guinea pigs; cited from earlier work.
Where [4] appears, read: Phase A, n = 12, listed as ifetroban.
Where [5] appears, read: Phase B (aspirin challenge), n = 12.
Where [6] appears, read: aspirin desensitization, n = 12.
The mark [7] stands for this setting: column headed Phase C (overall, during the study), n = 12.
[8] abbreviates: subjects that experienced an AIR.
Where [9] appears, read: subjects that experienced an AIR, listed as ifetroban.

The structures appear in SMILES notation. “Also recorded” adds a separate entry of the source. Like-named read-outs stand apart in the source and are kept apart here.

Sequence of CYP2C9 (P11712 whole entry): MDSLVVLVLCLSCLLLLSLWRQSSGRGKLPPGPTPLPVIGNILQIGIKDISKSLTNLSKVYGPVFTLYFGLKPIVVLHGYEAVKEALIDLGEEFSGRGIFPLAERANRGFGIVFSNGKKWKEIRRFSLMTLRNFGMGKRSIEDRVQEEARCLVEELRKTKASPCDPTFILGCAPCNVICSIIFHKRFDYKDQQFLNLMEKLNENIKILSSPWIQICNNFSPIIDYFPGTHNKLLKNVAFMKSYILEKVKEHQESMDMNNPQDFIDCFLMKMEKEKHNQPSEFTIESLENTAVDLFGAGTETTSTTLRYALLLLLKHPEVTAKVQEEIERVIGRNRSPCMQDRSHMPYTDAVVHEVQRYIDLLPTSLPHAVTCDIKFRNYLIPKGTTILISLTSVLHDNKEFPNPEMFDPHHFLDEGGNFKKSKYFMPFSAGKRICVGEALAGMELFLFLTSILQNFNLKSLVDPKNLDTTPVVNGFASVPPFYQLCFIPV

As for `CC(c1cc2ccccc2s1)N(O)C(N)=O` (centres unmarked) [zileuton], in the data set on Df-treated ptges−/− mice (Df-treated ptges−/− mice), the “Increase in airway resistance on inhalation of Lysine aspirin” value is recorded as “sensitive to interference”.

Turning to `CC(C)(O)c1ccccc1CC[C@@H](SCC1(CC(=O)O)CC1)c1cccc(/C=C/c2ccc3ccc(Cl)cc3n2)c1` [montelukast], the “Inhibition of CYP2C9” value at CYP2C9 is “does not inhibit”. Further, the “Inhibition of CYP3A4” value on CYP3A4 is recorded as “does not inhibit”.

For the compound `CC(c1ccccc1)C(O)/C=C/C1C2CCC(O2)C1C/C=C\CCCC(=O)O` (stereo not drawn) [[1S-(1α, 2α(Z), 3α(1E, 3S*, 4R*), 4α)]]-7-[3-(3-hydroxy-4-phenyl-1-pentenyl)-7-oxabicyclo[2.2.1]hept-2-yl]-5-heptenoic acid], in the data set on Df-treated ptges−/− mice (ptges−/− mice, Lys-ASA challenge), the “Rise in cys-LTs (BAL fluid)” value is listed as “completely blocked”. Moreover, the “Reaction to aspirin (peak change in RL in response to Lys-ASA challenge)” value with Df-treated ptges−/− mice (ptges−/− mice) is “completely blocked”; in the data set on Df-treated ptges−/− mice (ptges−/− mice, listed as SQ29.548), “attenuates aspirin sensitivity”.

With `CCCCCNC(=O)c1coc([C@H]2[C@@H](Cc3ccccc3CCC(=O)O)[C@@H]3CC[C@H]2O3)n1` [Ifetroban, [1S-(1α,2α,3α,4α)]-2-[[3-[4-[(Pentylamino)carbonyl]-2-oxazolyl]-7-oxabicyclo[2.2.1]hept-2-yl]methyl]-benzenepropanoic acid], the “Difference in mean rescue medications, placebo versus ifetroban” value in data set [1] (7.33 (placebo) versus 2.90 (ifetroban) to resolve an AIR) is 2.5 fold. Further, the “Severity of an AIR: All Symptoms (total number)” value in data set [1] (AIR subjects n = 10) turned out to be 43. Moreover, the “Incidence of an AIR by Aspirin Dose” value in data set [1] (Aspirin Dose 30 mg) is recorded as 0 No. of Subjects (%). Besides, the “Incidence of an AIR by Aspirin Dose” value in data set [1] (Aspirin Dose 60 mg) is 5 (50) No. of Subjects (%). Moreover, in data set [1] (Aspirin Dose 100 mg), the “Incidence of an AIR by Aspirin Dose” value was 5 (50) No. of Subjects (%). In data set [1] (Aspirin Dose 150 mg), the “Incidence of an AIR by Aspirin Dose” value is on record as 0 No. of Subjects (%). For the same compound, the “Incidence of an AIR by Aspirin Dose” value in data set [1] (Aspirin Dose 325 mg) is recorded as 0 No. of Subjects (%). Further, in data set [1] (Phase A, n = 12), the “NIFR ≥25% decrease” value is recorded as 2(17) No. of Subjects (%), the “NIFR ≥25% increase” value is 3(25) No. of Subjects (%), the “TNSS ≥25% decrease” value was 1(8) No. of Subjects (%) and the “TNSS ≥25% increase” value is 0 No. of Subjects (%). In data set [1] (setting [4]), the “TNSS ≥25% decrease” value is on record as 1 (8%) No. of Subjects (%) and the “TNSS ≥25% increase” value is given as “No subject”. In data set [1] (setting [5]), the “NIFR ≥25% decrease” value was 4(33) No. of Subjects (%), the “NIFR ≥25% increase” value is listed as 7(58) No. of Subjects (%), the “TNSS ≥25% decrease” value is reported as 2(17) No. of Subjects (%) and the “TNSS ≥25% increase” value is 3(25) No. of Subjects (%). Moreover, the “TNSS ≥25% decrease” value in data set [1] (Phase B (aspirin challenge), n = 12, listed as ifetroban) is 2 (17%) No. of Subjects (%). Moreover, in data set [1] (aspirin challenge), the “Average number of symptoms per AIR compared to placebo” value is reported as “comparable between treatment groups”; the “Bronchial reaction (<20% decrease in FEV1, wheezing, chest tightness) as part of the AIR compared to placebo” value is listed as “at a similar rate”; the “Ocular manifestation compared to placebo” value is on record as “seems to trend toward the placebo arm more often than on the ifetroban arm”; the “Upper respiratory effect (rhinorrhea, nasal obstruction, sneezing) compared to placebo” value is given as “equally as common between treatment groups”. Besides, in data set [1] (aspirin challenge (phase B)), the “Number of rescue medications compared to placebo (trend)” value is “apparent trend toward fewer rescue medications in favor of the ifetroban group” and the “Total Number of Rescue Medications” value was determined as 29. Further, in data set [1] (setting [6]), the “Aspirin-induced Reaction (AIR): No” value is 2 (17) No. of Subjects (%) and the “Aspirin-induced Reaction (AIR): Yes” value is 10 (83) No. of Subjects (%). In addition, the “Proportion of subjects with worsening NIFR or TNSS compared to placebo” value in data set [1] (between treatment groups) was “no clear trends were observed; also recorded: no appreciable difference was observed”. In data set [1] (setting [7]), the “NIFR ≥25% decrease” value is on record as 5(42) No. of Subjects (%), the “NIFR ≥25% increase” value was 9(75) No. of Subjects (%), the “TNSS ≥25% decrease” value was 2(17) No. of Subjects (%) and the “TNSS ≥25% increase” value is given as 3(25) No. of Subjects (%). Also, in data set [1] (column headed Phase C (overall, during the study), n = 12, listed as ifetroban), the “NIFR ≥25% increase” value was 9 (75%) No. of Subjects (%). Also, the “≥20% decrease in FEV1 (primary endpoint)” value in data set [1] (during IMP treatment or the aspirin desensitization process, 200 mg/day) is “did not cause a ≥20% decrease in FEV1”. Also, the “Subjects with ≥25% decrease in peak NIFR during both phase A and phase B” value in data set [1] (during both phase A and phase B) is recorded as “One”. Besides, the “Improvements to NIFR and TNSS compared to placebo” value in data set [1] (during phase A and phase B) is on record as “observed trend in favor of the ifetroban group toward greater improvements”. Moreover, the “Subjects with ≥50% or 75% increase or decrease in TNSS” value in data set [1] (during the study) is “No one”. In addition, in data set [1] (ifetroban at 200 mg/day), the “AEs reported compared to placebo” value is listed as “no increase in AEs”. Further, the Safety and tolerability result in data set [1] (ifetroban at 200 mg/day, subjects with a history of AERD) was “well tolerated and safe”. Moreover, in data set [1] (ifetroban at a dose of 200 mg/day), the “Symptoms of aspirin desensitization in AERD patients” value is listed as “may be diminished”. Besides, in data set [1] (n = 10), the “Severity of an AIR: <20% decrease in FEVI (number)” value was 9; the “Severity of an AIR: <20% decrease in FEVI Mean” value came out at 0.9; the “Severity of an AIR: All Symptoms Median” value amounted to 4; the “Severity of an AIR: All Symptoms Min, Max” value worked out at 3.7. Also, in data set [1] (n = 10), the “Severity of an AIR: Lower Respiratory (number of symptoms)” value is reported as 13, the “Severity of an AIR: Lower Respiratory Mean” value turned out to be 1.3, the “Severity of an AIR: Ocular (number of symptoms)” value is listed as 5 and the “Severity of an AIR: Ocular Mean” value was determined as 0.5. Also, in data set [1] (n = 10), the “Severity of an AIR: Upper Respiratory (number of symptoms)” value came out at 25 and the “Severity of an AIR: Upper Respiratory Mean” value came to 2.5. Moreover, the “Severity of an AIR: All Symptoms Mean(SD)” value in data set [1] (per AIR, n = 10) is listed as 4.3(1.34). For the same compound, the “Asthmatic reactions reported or rescue medications used” value in data set [1] (phase A prior to aspirin initiation) is given as “No asthmatic reactions were reported or rescue medications used”. Moreover, the “Initial reactions occurring at the 60-mg aspirin dose” value in data set [1] (provoking aspirin dose 60 mg) was found to be 50%. Also, in data set [1] (setting [8]), the “Required Rescue Medication: No” value is 1 (10) No. of Subjects (%), the “Required Rescue Medication: Yes” value was 9 (90) No. of Subjects (%), the “Rescue Medications Max” value was 7 and the “Rescue Medications Median” value came out at 3. Further, in data set [1] (setting [8]), the “Rescue Medications Min” value was determined as 0 and the “Rescue Medications Mean (SD)” value is reported as 2.90 (2.02). In addition, in data set [1] (setting [9]), the “Required Rescue Medication: No” value is 1 (10%) No. of Subjects (%) and the “Rescue Medications Mean (SD)” value is 2.90. Also, the “Rescue medication outside the clinic for an asthmatic reaction” value in data set [1] (throughout the 7-day study period) was “no subject required rescue medication outside the clinic”. Further, the “Mean changes from baseline FEV1” value in data set [1] (throughout the treatment period) is reported as “below 20%”. Besides, in the data set on guinea pig trachea, the “Contraction of guinea pig trachea elicited by PGD2” value is recorded as “inhibit contraction”. Also, the TP receptor-induced bronchospasm result in data set [2] is “both preempt and reverse”. In addition, the TP receptor-induced bronchospasm entry in data set [3] is “both preempt and reverse”.
